# Data reported in US20260159512A1, “BCAT2 INHIBITORS” (AGIOS PHARMACEUTICALS, INC., priority 2021, published 2026).
# Several values for one entry are separate records, joined by “and”; a condition that tells them apart may be missing. Equal entries are not always repeated.
# How the values were obtained:
# Conditions in all cases: average where tested multiple times
# [1] = target: T1, BCAT2 (Homo sapiens, UniProt O15382); test: BCAT2 in vitro enzyme inhibition assay (resazurin/diaphorase-coupled fluorescence); type: biochemical
# T1 sequence (O15382 28-392): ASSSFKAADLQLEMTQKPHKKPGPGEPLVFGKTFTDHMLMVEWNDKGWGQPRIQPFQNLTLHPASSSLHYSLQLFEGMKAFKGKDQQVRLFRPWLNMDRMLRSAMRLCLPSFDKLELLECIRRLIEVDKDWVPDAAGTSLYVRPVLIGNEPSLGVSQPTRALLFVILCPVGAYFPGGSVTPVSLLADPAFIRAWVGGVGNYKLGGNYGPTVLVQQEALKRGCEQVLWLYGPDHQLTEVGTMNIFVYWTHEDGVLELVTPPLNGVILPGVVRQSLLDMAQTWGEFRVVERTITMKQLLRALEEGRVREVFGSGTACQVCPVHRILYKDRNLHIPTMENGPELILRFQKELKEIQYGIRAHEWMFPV
# Summary of the method: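 Coupled fluorescence readout: glutamate formed from L-leucine/α-ketoglutarate transamination drives GDH/NAD/diaphorase reduction of resazurin (Ex 540/Em 590). Human BCAT2 was first exposed 1 h at room temperature to compound, top final 100 μM in 3-fold, 10-point series; substrate reaction ran 1 h before SDS quench, in technical duplicate with DMSO max and enzyme-free min controls.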
# [2] = target: T2, hBCAT1 (Homo sapiens, UniProt P54687); test: BCAT1 in vitro enzyme inhibition assay (resazurin/diaphorase-coupled fluorescence); type: biochemical
# T2 sequence (P54687 1-386): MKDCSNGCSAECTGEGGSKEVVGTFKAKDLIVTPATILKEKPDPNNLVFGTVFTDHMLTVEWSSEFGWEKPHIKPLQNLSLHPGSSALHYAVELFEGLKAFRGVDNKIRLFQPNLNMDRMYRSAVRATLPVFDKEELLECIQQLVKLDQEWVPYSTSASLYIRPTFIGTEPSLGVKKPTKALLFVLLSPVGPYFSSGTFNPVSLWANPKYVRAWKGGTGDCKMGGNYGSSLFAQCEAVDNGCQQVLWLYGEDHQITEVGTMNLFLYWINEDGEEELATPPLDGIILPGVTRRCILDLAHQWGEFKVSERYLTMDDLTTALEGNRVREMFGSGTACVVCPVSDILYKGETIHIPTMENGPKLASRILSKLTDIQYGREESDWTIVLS
# Summary of the method: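 Ten-point, 3-fold compound series (top final 100 μM, delivered 1:50 from 50× DMSO stocks) tested against hBCAT1. Inhibition detected via diaphorase-coupled resazurin fluorescence, duplicate wells, with values from repeated runs averaged.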
# [3] = target: T1, BCAT2; test: BCAT2 in vitro cell inhibition using engineered A549 cells (KMV cell assay, 13C6-KMV by LC-MS/MS); type: cell-based; design: The result was an engineered A549 cell line that expressed endogenous BCAT2; endogenous in cells; host or cells: A549 cells with MUT and BCAT1 knocked out by CRISPR/CAS9
IC50 [1] [nM],IC50 [2],IC50 [3],Compound
≤ 100,1000 to 5000 nM and > 5000 nM,> 1000 nM,"CC(=O)N1CC(NC(=O)c2ncc(C(F)F)s2)CC(n2c(-c3ncccc3F)nc3cnc(-n4ccnn4)cc32)C1 (stereo not drawn) [Example 120, N-(1-acetyl-5-(2-(3-fluoropyridin-2-yl)-6-(1H-1,2,3-triazol-1-yl)-1H-imidazo[4,5-c]pyridin-1-yl)piperidin-3-yl)-5-(difluoromethyl)thiazole-2-carboxamide]"
≤ 100,500 to 1000 nM,500 to 1000 nM,"O=C(N[C@H]1C[C@H](O)C[C@@H](n2c(-c3ccccc3F)nc3cnccc32)C1)c1ncc(Cl)s1 [Example 272, 5-chloro-N-((1R,3S,5S)-3-(2-(2-fluorophenyl)-1H-imidazo[4,5-c]pyridin-1-yl)-5-hydroxycyclohexyl)thiazole-2-carboxamide]"
≤ 100,1000 to 5000 nM,100 to 500 nM,"O=C(NC1CCCC(n2c(-c3ccccn3)nc3cnc(-c4nnco4)cc32)C1)c1ccc(Br)s1 (stereo not drawn) [Example 1, N-(3-(6-(1,3,4-oxadiazol-2-yl)-2-(pyridin-2-yl)-1H-imidazo[4,5-c]pyridin-1-yl)cyclohexyl)-5-bromothiophene-2-carboxamide]"
≤ 100,< 500 nM,≤ 100 nM,"O=C(N[C@H]1CCC[C@@H](n2c(-c3c(O)cccc3F)nc3cnc(-c4nc[nH]n4)cc32)C1)c1ncc(Cl)s1 [Example 339, 5-chloro-N-((1S,3R)-3-(2-(2-fluoro-6-hydroxyphenyl)-6-(1H-1,2,4-triazol-3-yl)-1H-imidazo[4,5-c]pyridin-1-yl)cyclohexyl)thiazole-2-carboxamide]"
≤ 100,< 500 nM,≤ 100 nM,"CC(C)Cc1nc2cnc(-c3nc[nH]n3)cc2n1[C@@H]1CCC[C@H](NC(=O)c2ccc(Cl)s2)C1 [Example 317, 5-chloro-N-((1S,3R)-3-(2-isobutyl-6-(1H-1,2,4-triazol-3-yl)-1H-imidazo[4,5-c]pyridin-1-yl)cyclohexyl)thiophene-2-carboxamide]"
≤ 100,> 5000 nM,> 1000 nM,"CC(O)CN1CC(NC(=O)c2ncc(C(F)F)s2)CC(n2c(-c3ncccc3F)nc3cnc(-n4nccn4)cc32)C1 (stereo not drawn) [Example 129, 5-(difluoromethyl)-N-(5-(2-(3-fluoropyridin-2-yl)-6-(2H-1,2,3-triazol-2-yl)-1H-imidazo[4,5-c]pyridin-1-yl)-1-(2-hydroxypropyl)piperidin-3-yl)thiazole-2-carboxamide]"
≤ 100,< 500 nM,≤ 100 nM,"O=C(N[C@H]1CCC[C@@H](n2c(-c3ccccc3F)nc3cnc(-c4nc[nH]n4)cc32)[C@@H]1O)c1ncc(Cl)s1 [Example 400, 5-chloro-N-((1S,2R,3R)-3-(2-(2-fluorophenyl)-6-(1H-1,2,4-triazol-3-yl)-1H-imidazo[4,5-c]pyridin-1-yl)-2-hydroxycyclohexyl)thiazole-2-carboxamide]"
≤ 100,< 500 nM,≤ 100 nM,"CC(C)Cc1nc2cnc(-c3ccccn3)cc2n1[C@@H]1CCC[C@H](NC(=O)c2ncc(Cl)s2)[C@H]1O [Example 235, 5-chloro-N-((1S,2R,3R)-2-hydroxy-3-(2-isobutyl-6-(pyridin-2-yl)-1H-imidazo[4,5-c]pyridin-1-yl)cyclohexyl)thiazole-2-carboxamide]"
≤ 100,< 500 nM,500 to 1000 nM,"O=C(N[C@H]1CCC[C@@H](n2c(-c3ccccc3F)nc3cnc(-c4nn[nH]n4)cc32)C1)c1ccc(Cl)s1 [Example 82, 5-chloro-N-((1S,3R)-3-(2-(2-fluorophenyl)-6-(2H-tetrazol-5-yl)-1H-imidazo[4,5-c]pyridin-1-yl)cyclohexyl)thiophene-2-carboxamide]"
≤ 100,500 to 1000 nM,100 to 500 nM,"O=C(N[C@H]1CCC[C@@H](n2c(-c3ccccc3F)nc3cnc(-c4ccccc4)cc32)C1)c1ncc(Cl)s1 [Example 204, 5-chloro-N-((1S,3R)-3-(2-(2-fluorophenyl)-6-phenyl-1H-imidazo[4,5-c]pyridin-1-yl)cyclohexyl)thiazole-2-carboxamide]"
≤ 100,< 500 nM,100 to 500 nM,"CC(C)Cc1nc2cnc(-c3cscn3)cc2n1[C@@H]1CCC[C@H](NC(=O)c2ncc(Cl)s2)C1 [Example 159, 5-chloro-N-((1S,3R)-3-(2-isobutyl-6-(thiazol-4-yl)-1H-imidazo[4,5-c]pyridin-1-yl)cyclohexyl)thiazole-2-carboxamide]"
≤ 100,< 500 nM,≤ 100 nM,"N#Cc1cnc(C(=O)N[C@H]2CCC[C@@H](n3c(-c4ncccc4F)nc4cnc(-n5nccn5)cc43)C2)s1 [Example 66, 5-cyano-N-((1S,3R)-3-(2-(3-fluoropyridin-2-yl)-6-(2H-1,2,3-triazol-2-yl)-1H-imidazo[4,5-c]pyridin-1-yl)cyclohexyl)thiazole-2-carboxamide]"
≤ 100,500 to 1000 nM,≤ 100 nM and 100 to 500 nM,"O=C(N[C@H]1CCC[C@@H](n2c(-c3ccccn3)nc3cnc(-n4cncn4)cc32)C1)c1ccc(Br)s1 [Example 9, 5-bromo-N-((1S,3R)-3-(2-(pyridin-2-yl)-6-(1H-1,2,4-triazol-1-yl)-1H-imidazo[4,5-c]pyridin-1-yl)cyclohexyl)thiophene-2-carboxamide]"
≤ 100,1000 to 5000 nM,100 to 500 nM,"O=C(N[C@H]1CCC[C@@H](n2c(-c3ncccc3F)nc3cnc(-n4nccn4)nc32)C1)c1ncc(C(F)F)s1 [Example 58, 5-(difluoromethyl)-N-((1S,3R)-3-(8-(3-fluoropyridin-2-yl)-2-(2H-1,2,3-triazol-2-yl)-9H-purin-9-yl)cyclohexyl)thiazole-2-carboxamide]"
≤ 100,< 500 nM,≤ 100 nM,"O=C(N[C@H]1CCC[C@@H](n2c(-c3ccccc3F)nc3cnc(N4CCCC4CO)cc32)C1)c1ncc(Cl)s1 (stereo partly drawn) [Example 196, 5-chloro-N-((1S,3R)-3-(2-(2-fluorophenyl)-6-(2-(hydroxymethyl)pyrrolidin-1-yl)-1H-imidazo[4,5-c]pyridin-1-yl)cyclohexyl)thiazole-2-carboxamide]"
≤ 100,< 500 nM,500 to 1000 nM,"CC(C)[C@@H](O)c1nc2cnc(-c3ncccn3)cc2n1[C@@H]1CCC[C@H](NC(=O)c2ncc(Cl)s2)C1 [Example 172, 5-chloro-N-((1S,3R)-3-(2-((R)-1-hydroxy-2-methylpropyl)-6-(pyrimidin-2-yl)-1H-imidazo[4,5-c]pyridin-1-yl)cyclohexyl)thiazole-2-carboxamide]"
≤ 100,< 500 nM,100 to 500 nM,"O=C(N[C@H]1CCC[C@@H](n2c(-c3ccccc3F)nc3cnc(-c4n[nH]c(=O)o4)cc32)C1)c1ncc(Cl)s1 [Example 203, 5-chloro-N-((1S,3R)-3-(2-(2-fluorophenyl)-6-(5-oxo-4,5-dihydro-1,3,4-oxadiazol-2-yl)-1H-imidazo[4,5-c]pyridin-1-yl)cyclohexyl)thiazole-2-carboxamide]"
100 to 500,< 500 nM,100 to 500 nM,"O=C(N[C@H]1CCC[C@@H](n2c(-c3ccccc3F)nc3cnc(O[C@H]4CCOC4)cc32)C1)c1ncc(Cl)s1 [Example 267, 5-chloro-N-((1S,3R)-3-(2-(2-fluorophenyl)-6-(((S)-tetrahydrofuran-3-yl)oxy)-1H-imidazo[4,5-c]pyridin-1-yl)cyclohexyl)thiazole-2-carboxamide]"
≤ 100,< 500 nM,≤ 100 nM,"CC1(Cc2nc3cnc(-c4nc[nH]n4)cc3n2[C@@H]2CCC[C@H](NC(=O)c3ncc(Cl)s3)C2)CC1 [Example 379, 5-chloro-N-((1S,3R)-3-(2-((1-methylcyclopropyl)methyl)-6-(1H-1,2,4-triazol-3-yl)-1H-imidazo[4,5-c]pyridin-1-yl)cyclohexyl)thiazole-2-carboxamide]"
